Results on seven compounds are retold here after PubChem BioAssay (NCI).

Test systems include HCT-116 colon; HCT-15 colon; M14 melanoma; MCF7 breast; NCI-H460 lung; SK-MEL-28 melanoma; SNB-19 CNS; SNB-75 CNS; U251 CNS; UO-31 renal.
What all share (test): inhibition of tumour cell growth, NCI panel, 48 h

Molecules are shown by their SMILES. “And” between values parts separate entries of the source, which are not always exact repeats. Equal entries are not always repeated.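 A five-concentration, 48-hour dose response in 96-well plates underlies each endpoint, interpolated linearly between surrounding concentrations. Here, GI50 denotes the concentration required for 50% inhibition of growth. TGI is the concentration that stops growth completely.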

For `COc1cc(OC)c(C(=O)/C=C/c2cccc(C#N)c2)c(OC)c1`, the GI50 in the assay with HCT-116 colon is 0.414 µM; in the assay on HCT-15 colon, 0.853 µM; in the assay on M14 melanoma, 0.978 µM; with MCF7 breast, 1.33 µM; in the assay with NCI-H460 lung, 1.1 µM; with SK-MEL-28 melanoma, 1.58 µM. For the same compound, the GI50 was 1.67 µM in the assay on SNB-19 CNS, 1.31 µM in the assay on SNB-75 CNS, 1.53 µM in the assay on U251 CNS and 1.13 µM in the assay on UO-31 renal. In addition, the TGI in the assay on HCT-116 colon was 1.62 µM; in the assay with HCT-15 colon, 3.02 µM; in the assay with M14 melanoma, 4.68 µM; in the assay on MCF7 breast, 6.72 µM; with NCI-H460 lung it was 2.86 µM; in the assay on SK-MEL-28 melanoma it was 6.24 µM. The TGI in the assay with SNB-19 CNS is 6.61 µM; with SNB-75 CNS, 5.62 µM; in the assay with U251 CNS, 5.76 µM; with UO-31 renal it was 4.86 µM.
As for `COc1ccc(C2=CC(c3ccc(OC)cc3Br)N3C=CSC3=N2)cc1` (centres undefined), the GI50 in the assay with HCT-116 colon was 1.66 µM; in the assay with HCT-15 colon, 1.49 µM; in the assay with M14 melanoma it was 5.21 µM; in the assay with MCF7 breast, 1.51 µM; in the assay with NCI-H460 lung, 11.9 µM; in the assay with SK-MEL-28 melanoma, 8.83 µM. For the same compound, the GI50 is 9.79 µM in the assay on SNB-19 CNS, 15.6 µM in the assay with SNB-75 CNS, 3.23 µM in the assay with U251 CNS and 7.31 µM with UO-31 renal. In addition, the TGI with HCT-116 colon was determined as 3.17 µM; in the assay with HCT-15 colon it was 3.41 µM; in the assay on M14 melanoma, 20.8 µM; in the assay with MCF7 breast, 11.2 µM; with NCI-H460 lung, 34.6 µM; in the assay with SK-MEL-28 melanoma it was 22.3 µM. Besides, the TGI in the assay with SNB-19 CNS was determined as 25.3 µM; with SNB-75 CNS, 43.7 µM; with U251 CNS, 14 µM; in the assay on UO-31 renal, 21.2 µM.
Take `CC1=C(CCC(C)NCc2ccc(OCCCN3CCCCC3)cc2)C(C)(C)CCC1` (centres undefined): the GI50 in the assay on HCT-116 colon is 1.53 µM; in the assay on HCT-15 colon, 0.575 µM; in the assay with M14 melanoma, 0.214 µM; in the assay with MCF7 breast, 0.286 µM; with NCI-H460 lung, 1.53 µM; in the assay on SK-MEL-28 melanoma, 1.38 µM. Further, the GI50 is 2.01 µM in the assay on SNB-19 CNS, 1.39 µM in the assay with SNB-75 CNS, 1.57 µM in the assay with U251 CNS and 1.56 µM with UO-31 renal. Further, the TGI turned out to be 3.13 µM in the assay with HCT-116 colon; 2.03 µM in the assay with HCT-15 colon; 0.468 µM in the assay on M14 melanoma; 1.17 µM with MCF7 breast; 3.28 µM in the assay with NCI-H460 lung; 2.83 µM with SK-MEL-28 melanoma. For the same compound, the TGI amounted to 4.26 µM in the assay on SNB-19 CNS, 2.72 µM with SNB-75 CNS, 3.28 µM in the assay with U251 CNS and 2.97 µM in the assay on UO-31 renal.
On to `O1[As]2O[As]3O[As]1O[As](O2)O3`, for which the GI50 with HCT-116 colon was 1.27 µM; in the assay on HCT-15 colon it was 1.08 µM; with M14 melanoma it was 1.46 µM; in the assay on MCF7 breast, 0.388 µM; in the assay with NCI-H460 lung, 2.03 µM; in the assay on SK-MEL-28 melanoma, 1.02 µM. Further, the GI50 in the assay on SNB-19 CNS was 1.65 µM; with SNB-75 CNS, 0.389 µM; in the assay on U251 CNS, 0.294 µM; in the assay with UO-31 renal it was 1.22 µM. Further, the TGI in the assay on HCT-116 colon turned out to be 2.8 µM; in the assay with HCT-15 colon, 4.79 µM; with M14 melanoma it was 4.21 µM; with MCF7 breast it was 2.29 µM; in the assay with SK-MEL-28 melanoma it was 2.45 µM; in the assay on SNB-19 CNS, 4.44 µM. Further, the figures for the TGI in the assay with SNB-75 CNS, with U251 CNS and with UO-31 renal were 3.34 µM, 1.25 µM and 2.84 µM, respectively.
As for `NCCN.O=C([O-])CN1CCOCC1.[OH-].[Pt+4]`, the GI50 with HCT-116 colon was > 100 µM; in the assay on HCT-15 colon, > 100 µM; in the assay on M14 melanoma, > 100 µM; with MCF7 breast it was > 100 µM; with NCI-H460 lung, 37.5 µM; with SK-MEL-28 melanoma it was > 100 µM. For the same compound, the GI50 with SNB-19 CNS, with SNB-75 CNS, with U251 CNS and in the assay with UO-31 renal was > 100 µM each time. The TGI with HCT-116 colon, in the assay with HCT-15 colon, in the assay with M14 melanoma, in the assay on MCF7 breast, in the assay with NCI-H460 lung and in the assay with SK-MEL-28 melanoma was > 100 µM in each case. In addition, the TGI in the assay on SNB-19 CNS, in the assay on SNB-75 CNS, in the assay on U251 CNS and with UO-31 renal was > 100 µM each time.
As for `NC(=O)c1ccc(-c2nc(-c3ccc4c(c3)OCO4)c(-c3ccccn3)[nH]2)cc1`, the GI50 is > 25 µM and 30.4 µM in the assay with HCT-116 colon; > 25 µM and 23 µM in the assay with HCT-15 colon; > 25 µM and 38.1 µM in the assay on M14 melanoma; > 25 µM and 31.9 µM in the assay on MCF7 breast; > 25 µM and 23.3 µM in the assay on NCI-H460 lung; > 25 µM and 51.1 µM in the assay with SK-MEL-28 melanoma. The GI50 was > 25 µM and 54.6 µM in the assay with SNB-19 CNS; > 16.5 µM and 21.3 µM in the assay with SNB-75 CNS; > 25 µM and 44.5 µM with U251 CNS; > 25 µM and 32.3 µM in the assay with UO-31 renal. Besides, the TGI is > 100 µM in the assay on HCT-116 colon; > 25 µM and 63.6 µM in the assay on HCT-15 colon; > 100 µM in the assay with M14 melanoma; > 83.8 µM in the assay with MCF7 breast; > 84.7 µM in the assay on NCI-H460 lung; > 100 µM with SK-MEL-28 melanoma. Also, the TGI in the assay on SNB-19 CNS is > 100 µM; in the assay with SNB-75 CNS it was > 90.8 µM; in the assay with U251 CNS it was > 100 µM; with UO-31 renal it was > 100 µM.
Take `Nc1c(C(=O)c2cccc(-c3cccnc3)c2)cnn1-c1ccc(F)cc1F`: the GI50 in the assay with HCT-116 colon is 2.87 µM; in the assay on HCT-15 colon, 1.11 µM; in the assay on M14 melanoma, 2.71 µM; in the assay with MCF7 breast it was 1.59 µM; in the assay on NCI-H460 lung it was 1.52 µM; in the assay on SK-MEL-28 melanoma, 10.1 µM. In addition, the GI50 with SNB-19 CNS is 11.7 µM; in the assay on SNB-75 CNS, 5.33 µM; in the assay on U251 CNS, 6.79 µM; in the assay with UO-31 renal, 5.56 µM. Moreover, the TGI in the assay on HCT-116 colon, in the assay with HCT-15 colon, with M14 melanoma, in the assay with MCF7 breast, in the assay with NCI-H460 lung and with SK-MEL-28 melanoma was > 25 µM each time. The TGI with SNB-19 CNS, in the assay with SNB-75 CNS, in the assay with U251 CNS and in the assay on UO-31 renal was > 25 µM in each case.
